In brackets after ≈: the same amount, converted by molar mass. Each block holds one molecule with its values, some of them ahead of it.
Columns and labels:
human MDR1 (P-gp) = assay: Efflux ratio of apparent permeability across basolateral to apical side over apical to basolateral side in human MDR1-transfected dog MDCKII-MDR1 cells at 0.1 to 1 uM measured after 3 hrs by LC/MS/MS analysis; assay type: ADME, cell-based, Canis lupus familiaris; conditions: MDCK-MDR1, dose 0.1-1 µM
[1] = Unbound brain-to-plasma concentration ratio in rat at 2.5 uM incubated for 4 hrs by equilibrium dialysis method; assay type: ADME, cell-free; conditions: brain and plasma (unbound), read-out: K(p,uu,brain)
[2] = Unbound brain-to-plasma concentration ratio in non-human primates by positron emission tomography; assay type: ADME; conditions: brain and plasma (unbound), read-out: K(p,uu,brain)
[3] = Thermodynamic solubility of the compound in FaSSIF measured after 24 hrs by reverse phase UPLC analysis; assay type: physicochemical; conditions: read-out: Therm_solubility
[4] = Intrinsic clearance in Wistar Han rat at 2 mg/kg, iv by LC-MS/MS analysis; assay type: ADME, organism-based; conditions: in vivo
[5] = target: MAP/microtubule affinity-regulating kinase 3 (Homo sapiens, UniProt P27448); assay: Inhibition of MARK3 (unknown origin)
Sequence of MAP/microtubule affinity-regulating kinase 3 (P27448 whole entry): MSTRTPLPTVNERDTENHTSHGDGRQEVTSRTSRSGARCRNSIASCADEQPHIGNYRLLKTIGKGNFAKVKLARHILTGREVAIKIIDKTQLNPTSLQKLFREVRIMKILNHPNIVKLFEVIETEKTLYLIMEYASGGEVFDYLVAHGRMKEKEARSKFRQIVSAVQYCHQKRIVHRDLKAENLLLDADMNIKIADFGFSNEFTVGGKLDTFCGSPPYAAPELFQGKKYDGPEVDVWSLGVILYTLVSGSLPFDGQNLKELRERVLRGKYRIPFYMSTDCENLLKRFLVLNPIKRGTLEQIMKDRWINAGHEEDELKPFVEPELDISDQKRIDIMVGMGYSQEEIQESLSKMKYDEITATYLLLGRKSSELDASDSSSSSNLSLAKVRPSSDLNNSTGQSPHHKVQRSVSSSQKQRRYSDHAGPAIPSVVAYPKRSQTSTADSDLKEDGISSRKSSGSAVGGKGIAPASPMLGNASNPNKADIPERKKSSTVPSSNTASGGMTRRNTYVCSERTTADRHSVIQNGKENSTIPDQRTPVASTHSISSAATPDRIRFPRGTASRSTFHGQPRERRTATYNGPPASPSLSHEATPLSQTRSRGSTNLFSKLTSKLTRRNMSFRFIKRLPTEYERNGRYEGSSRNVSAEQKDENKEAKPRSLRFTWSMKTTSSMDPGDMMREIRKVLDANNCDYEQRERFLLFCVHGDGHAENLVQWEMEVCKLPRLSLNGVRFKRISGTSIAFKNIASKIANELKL

[6] = MRT in Wistar Han rat at 2 mg/kg, iv by LC-MS/MS analysis; assay type: ADME, organism-based; conditions: in vivo
[7] = Toxicity in rat assessed as elevation of AhR gene expression at 10 to 75 mg/kg, po bid administered for 4 days; assay type: organism-based; conditions: in vivo, 96 h, dose 10-75 mg/kg, time 4 day
[8] = Toxicity in rat assessed as elevation of PXR gene expression at 10 to 75 mg/kg, po bid administered for 4 days; assay type: organism-based; conditions: in vivo, 96 h, dose 10-75 mg/kg, time 4 day
[9] = Total plasma clearance in Wistar Han rat at 2 mg/kg, iv by LC-MS/MS analysis; assay type: ADME, organism-based
[10] = Toxicity in rat assessed as elevation of inflammatory response related gene expression at 10 to 75 mg/kg, po bid administered for 4 days; assay type: organism-based; conditions: in vivo, 96 h, dose 10-75 mg/kg, time 4 day
[11] = Intrinsic clearance in dog hepatocytes at 0.3 uM incubated for 90 mins by LC/MS/MS analysis; assay type: ADME, cell-based, Canis lupus familiaris, Hepatocyte; conditions: read-out: CLH
[12] = Total plasma clearance in Rhesus monkey at 0.1 mg/kg, iv by LC-MS/MS analysis; assay type: ADME, organism-based, Macaca mulatta
mouse Bcrp [13] = assay: Apparent permeability in mouse Bcrp-transfected dog MDCK-II cells at 0.1 to 1 uM measured after 3 hrs by LC/MS/MS analysis; assay type: ADME, cell-based, Canis lupus familiaris; conditions: dose 0.1-1 µM
[14] = target: Leucine-rich repeat serine/threonine-protein kinase 2 (Homo sapiens) (UniProt Q5S007); assay: Ex vivo inhibition of LRRK2 in human PBMC assessed as unbound concentration required for reduction in LRRK2 phosphorylation at Ser935 residue incubated for 90 mins by MSD assay; assay type: cell-based
Sequence of Leucine-rich repeat serine/threonine-protein kinase 2 (Homo sapiens) (Q5S007 whole entry): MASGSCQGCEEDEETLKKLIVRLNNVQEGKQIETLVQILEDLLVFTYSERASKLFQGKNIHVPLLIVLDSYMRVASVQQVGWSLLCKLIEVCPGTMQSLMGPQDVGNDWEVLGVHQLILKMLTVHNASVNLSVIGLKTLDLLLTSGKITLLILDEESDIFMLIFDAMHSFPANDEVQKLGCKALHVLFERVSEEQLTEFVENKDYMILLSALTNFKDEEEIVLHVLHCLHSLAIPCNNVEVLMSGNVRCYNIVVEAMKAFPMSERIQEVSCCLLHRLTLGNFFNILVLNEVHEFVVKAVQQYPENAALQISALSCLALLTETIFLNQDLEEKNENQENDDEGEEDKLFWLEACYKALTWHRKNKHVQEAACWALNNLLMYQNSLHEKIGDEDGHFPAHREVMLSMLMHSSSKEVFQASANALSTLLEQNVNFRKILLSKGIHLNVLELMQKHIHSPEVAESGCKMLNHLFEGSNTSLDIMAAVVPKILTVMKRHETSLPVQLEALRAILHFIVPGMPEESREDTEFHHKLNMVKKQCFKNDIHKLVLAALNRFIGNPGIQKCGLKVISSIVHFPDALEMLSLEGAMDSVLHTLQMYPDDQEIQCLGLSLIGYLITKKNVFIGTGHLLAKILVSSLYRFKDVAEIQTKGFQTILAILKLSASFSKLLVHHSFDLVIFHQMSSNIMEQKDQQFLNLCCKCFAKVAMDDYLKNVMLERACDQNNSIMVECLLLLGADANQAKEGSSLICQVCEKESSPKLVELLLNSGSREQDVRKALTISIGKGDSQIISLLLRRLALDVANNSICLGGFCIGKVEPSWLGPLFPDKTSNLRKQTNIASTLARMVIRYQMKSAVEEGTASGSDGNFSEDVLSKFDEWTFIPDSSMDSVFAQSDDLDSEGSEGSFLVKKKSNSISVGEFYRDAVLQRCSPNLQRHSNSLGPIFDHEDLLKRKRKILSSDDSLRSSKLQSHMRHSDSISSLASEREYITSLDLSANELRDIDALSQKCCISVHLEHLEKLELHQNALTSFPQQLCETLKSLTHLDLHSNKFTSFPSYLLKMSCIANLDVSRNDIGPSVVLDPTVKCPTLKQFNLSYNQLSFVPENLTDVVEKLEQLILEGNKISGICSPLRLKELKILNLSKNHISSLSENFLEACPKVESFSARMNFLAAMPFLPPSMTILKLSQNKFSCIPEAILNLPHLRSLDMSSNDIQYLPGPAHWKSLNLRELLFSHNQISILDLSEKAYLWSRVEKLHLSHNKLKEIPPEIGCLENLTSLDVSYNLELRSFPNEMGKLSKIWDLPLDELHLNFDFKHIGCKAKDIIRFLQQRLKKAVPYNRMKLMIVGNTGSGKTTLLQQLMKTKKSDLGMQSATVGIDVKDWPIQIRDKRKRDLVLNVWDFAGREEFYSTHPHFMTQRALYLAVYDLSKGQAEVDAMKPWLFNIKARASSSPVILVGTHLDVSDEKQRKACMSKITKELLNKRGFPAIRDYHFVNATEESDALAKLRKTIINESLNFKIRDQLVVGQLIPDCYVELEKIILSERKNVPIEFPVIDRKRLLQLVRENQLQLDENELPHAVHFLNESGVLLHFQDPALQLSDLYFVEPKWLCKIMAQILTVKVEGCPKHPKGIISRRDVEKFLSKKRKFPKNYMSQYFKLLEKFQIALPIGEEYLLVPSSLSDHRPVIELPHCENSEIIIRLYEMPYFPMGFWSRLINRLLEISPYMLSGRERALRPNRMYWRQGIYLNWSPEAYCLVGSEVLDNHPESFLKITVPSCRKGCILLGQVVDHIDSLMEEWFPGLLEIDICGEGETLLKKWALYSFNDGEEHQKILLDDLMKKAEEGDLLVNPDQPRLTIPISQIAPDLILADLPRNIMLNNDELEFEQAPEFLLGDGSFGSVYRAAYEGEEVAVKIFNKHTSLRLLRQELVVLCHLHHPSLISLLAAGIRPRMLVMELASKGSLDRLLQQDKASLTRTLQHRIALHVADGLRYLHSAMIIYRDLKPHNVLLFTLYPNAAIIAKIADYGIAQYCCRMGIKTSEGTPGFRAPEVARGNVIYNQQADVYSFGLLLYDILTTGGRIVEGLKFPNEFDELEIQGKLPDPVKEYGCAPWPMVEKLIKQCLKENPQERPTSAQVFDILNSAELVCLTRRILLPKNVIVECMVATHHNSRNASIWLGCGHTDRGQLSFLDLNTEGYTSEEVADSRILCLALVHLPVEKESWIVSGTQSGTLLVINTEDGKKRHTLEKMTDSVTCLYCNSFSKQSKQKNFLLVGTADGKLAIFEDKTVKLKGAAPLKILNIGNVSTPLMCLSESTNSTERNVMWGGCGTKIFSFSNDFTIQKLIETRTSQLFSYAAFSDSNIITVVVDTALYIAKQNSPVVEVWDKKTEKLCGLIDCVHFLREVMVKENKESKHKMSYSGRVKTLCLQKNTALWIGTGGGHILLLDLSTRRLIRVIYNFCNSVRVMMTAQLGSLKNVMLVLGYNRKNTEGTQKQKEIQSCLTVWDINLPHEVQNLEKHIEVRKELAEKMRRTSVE

[15] = Oral bioavailability in Wistar Han rat at 10 mg/kg by LC-MS/MS analysis; assay type: ADME, organism-based; conditions: in vivo
[16] = Oral bioavailability in Beagle dog at 0.5 mg/kg by LC-MS/MS analysis; assay type: ADME, organism-based, Canis lupus familiaris; conditions: in vivo
GSTA5 = assay: Toxicity in rat assessed as fold increase in GSTA5 transcriptional activity in liver at 75 mg/kg, po bid administered for 4 days relative to control; assay type: organism-based; conditions: time 4 day, read-out: FC
Salmonella typhimurium [17] = assay: Mutagenicity in Salmonella typhimurium TA100 at 30 to 5000 ug incubated for 48 hrs in presence of liver S9 fraction by AMES test; assay type: toxicity, organism-based, Salmonella enterica subsp. enterica serovar Typhimurium; conditions: s9, 48 h, dose 30-5000 µg
[18] = Intrinsic clearance in Rhesus monkey at 0.1 mg/kg, iv by LC-MS/MS analysis; assay type: ADME, organism-based, Macaca mulatta; conditions: in vivo
[19] = AUC in rat at 10 to 75 mg/kg, po bid administered for 4 days; assay type: ADME, organism-based; parameters: time 4 day; conditions: in vivo, 96 h, dose 10-75 mg/kg
[20] = target: Voltage-gated inwardly rectifying potassium channel KCNH2 (Homo sapiens, UniProt Q12809); assay: Inhibition of human ERG by voltage clamp assay; assay type: toxicity
Sequence of Voltage-gated inwardly rectifying potassium channel KCNH2 (Q12809 whole entry): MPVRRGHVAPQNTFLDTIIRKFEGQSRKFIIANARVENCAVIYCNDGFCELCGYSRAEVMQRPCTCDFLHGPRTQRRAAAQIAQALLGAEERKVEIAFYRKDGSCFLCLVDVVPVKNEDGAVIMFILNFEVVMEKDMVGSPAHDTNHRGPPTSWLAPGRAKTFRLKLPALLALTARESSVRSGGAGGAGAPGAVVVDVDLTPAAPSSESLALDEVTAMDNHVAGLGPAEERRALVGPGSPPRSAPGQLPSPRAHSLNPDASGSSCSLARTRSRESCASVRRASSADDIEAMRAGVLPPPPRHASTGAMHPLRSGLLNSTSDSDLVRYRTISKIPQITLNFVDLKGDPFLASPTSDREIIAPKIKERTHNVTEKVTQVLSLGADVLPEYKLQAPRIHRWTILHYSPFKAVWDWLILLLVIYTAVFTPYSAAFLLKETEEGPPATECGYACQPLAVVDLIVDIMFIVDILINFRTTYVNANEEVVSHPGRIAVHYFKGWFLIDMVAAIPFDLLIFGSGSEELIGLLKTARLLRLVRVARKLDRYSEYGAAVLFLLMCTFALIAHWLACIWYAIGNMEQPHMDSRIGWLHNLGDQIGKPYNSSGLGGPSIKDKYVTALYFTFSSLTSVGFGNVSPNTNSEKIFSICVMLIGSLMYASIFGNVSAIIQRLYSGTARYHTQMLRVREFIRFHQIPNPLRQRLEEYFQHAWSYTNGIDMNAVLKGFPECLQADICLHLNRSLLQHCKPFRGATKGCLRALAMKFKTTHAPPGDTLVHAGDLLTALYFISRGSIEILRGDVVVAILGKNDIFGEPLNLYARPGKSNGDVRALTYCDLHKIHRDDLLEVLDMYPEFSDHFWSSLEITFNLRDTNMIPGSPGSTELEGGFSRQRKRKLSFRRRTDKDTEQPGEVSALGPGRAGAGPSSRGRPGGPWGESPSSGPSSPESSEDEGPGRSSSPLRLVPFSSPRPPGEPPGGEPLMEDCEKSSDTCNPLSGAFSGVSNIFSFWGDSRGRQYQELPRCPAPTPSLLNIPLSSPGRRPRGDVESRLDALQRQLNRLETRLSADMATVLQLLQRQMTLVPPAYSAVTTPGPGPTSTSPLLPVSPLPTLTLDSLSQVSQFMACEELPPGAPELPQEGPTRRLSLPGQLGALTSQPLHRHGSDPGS

mouse Bcrp [21] = assay: Efflux ratio of apparent permeability across basolateral to apical over apical to basolateral side in mouse Bcrp-transfected dog MDCK-II cells at 0.1 to 1 uM measured after 3 hrs by LC/MS/MS analysis; assay type: ADME, cell-based, Canis lupus familiaris; conditions: dose 0.1-1 µM
[22] = Toxicity in rat assessed as drug tolerability at 10 to 75 mg/kg, po bid administered for 4 days; assay type: organism-based; conditions: in vivo, 96 h, dose 10-75 mg/kg, time 4 day
[23] = Total plasma clearance in Beagle dog at 0.25 mg/kg, iv by LC-MS/MS analysis; assay type: ADME, organism-based, Canis lupus familiaris
[24] = Intrinsic clearance in human hepatocytes at 0.3 uM incubated for 90 mins by LC/MS/MS analysis; assay type: ADME, cell-based, Hepatocyte; conditions: read-out: CLH
[25] = target: T1, Natriuretic peptides A (Homo sapiens) (UniProt P01160); assay: Agonist activity at ANF (unknown origin) at 10 uM; conditions: filed as agonist
T1 sequence (whole entry): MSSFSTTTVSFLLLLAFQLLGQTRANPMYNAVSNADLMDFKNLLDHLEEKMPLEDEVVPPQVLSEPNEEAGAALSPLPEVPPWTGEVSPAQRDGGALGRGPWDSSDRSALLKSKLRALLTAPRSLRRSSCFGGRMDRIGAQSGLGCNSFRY

Salmonella typhimurium [26] = assay: Mutagenicity in Salmonella typhimurium TA98 at 30 to 5000 ug incubated for 48 hrs in presence of liver S9 fraction by AMES test; assay type: toxicity, organism-based, Salmonella enterica subsp. enterica serovar Typhimurium; conditions: s9, 48 h, dose 30-5000 µg
rat Mdr1a (P-gp) [27] = assay: Efflux ratio of apparent permeability across basolateral to apical side over apical to basolateral side in rat Mdr1a-transfected pig LLC-PK1 cells at 0.1 to 1 uM measured after 3 hrs by LC/MS/MS analysis; assay type: ADME, cell-based, Sus scrofa; conditions: dose 0.1-1 µM
CYP1A1 = assay: Toxicity in rat assessed as fold induction of CYP1A1 transcriptional activity in liver at 10 to 75 mg/kg, po bid administered for 4 days relative to control; assay type: organism-based; conditions: dose 10-75 mg/kg, time 4 day, read-out: FC
[28] = MRT in Beagle dog at 0.25 mg/kg, iv by LC-MS/MS analysis; assay type: ADME, organism-based, Canis lupus familiaris; conditions: in vivo
Salmonella typhimurium [29] = assay: Mutagenicity in Salmonella typhimurium TA1535 at 30 to 5000 ug incubated for 48 hrs in presence of liver S9 fraction by AMES test; assay type: toxicity, organism-based, Salmonella enterica subsp. enterica serovar Typhimurium; conditions: s9, 48 h, dose 30-5000 µg
UGT1A6 = assay: Toxicity in rat assessed as fold increase in UGT1A6 transcriptional activity in liver at 75 mg/kg, po bid administered for 4 days relative to control; assay type: organism-based; conditions: time 4 day, read-out: FC
[30] = Intrinsic clearance in Beagle dog at 0.25 mg/kg, iv by LC-MS/MS analysis; assay type: ADME, organism-based, Canis lupus familiaris; conditions: in vivo
rat Mdr1a (P-gp) [31] = assay: Apparent permeability from apical to basolateral side in rat Mdr1a-transfected pig LLC-PK1 cells at 0.1 to 1 uM measured after 3 hrs by LC/MS/MS analysis; assay type: ADME, cell-based, Sus scrofa; conditions: dose 0.1-1 µM
[32] = MRT in Rhesus monkey at 0.1 mg/kg, iv by LC-MS/MS analysis; assay type: ADME, organism-based, Macaca mulatta; conditions: in vivo
[33] = Intrinsic clearance in rat hepatocytes at 0.3 uM incubated for 90 mins by LC/MS/MS analysis; assay type: ADME, cell-based, Hepatocyte; conditions: read-out: CLH

efflux ratio at 3 h, up to 1 µM (human MDR1 (P-gp)): 0.41
Kp uu at 4 h, 2.5 µM [1]: 1.3
Kp uu [2]: 0.52
Compound: COc1cc2ncnc(Nc3cccc(Cl)c3F)c2cc1OC(=O)N1CCN(C)C[C@H]1C [AZD-3759]

solubility thermodynamic at 24 h [3]: 30 µg/mL (≈ 59.4 µM)
CL [4]: 480 mL/min/kg
IC50 [5]: 5.7 µM
MRT [6]: 3.7 h
Kp uu at 4 h, 2.5 µM [1]: 0.43
clearance [9]: 28 mL/min/kg
CLint scaled at 0.3 µM [11]: 160 mL/min/kg
clearance [12]: 29 mL/min/kg
Papp at 3 h, up to 1 µM (mouse Bcrp [13]): 30 ×10⁻⁶ cm/s
fIC50 [14]: 2.6 nM
bioavailability [15]: 64%
bioavailability [16]: 65%
CL [18]: 486 mL/min/kg
AUC [19]: 16 µM·h
efflux ratio at 3 h, up to 1 µM (mouse Bcrp [21]): 4.1
clearance [23]: 15 mL/min/kg
CLint scaled at 0.3 µM [24]: 114 mL/min/kg
Activity [25]: 60%
efflux ratio at 3 h, up to 1 µM (rat Mdr1a (P-gp) [27]): 4.3
MRT [28]: 16 h
CL [30]: 205 mL/min/kg
Papp A→B at 3 h, up to 1 µM (rat Mdr1a (P-gp) [31]): 31 ×10⁻⁶ cm/s
MRT [32]: 4.8 h
CLint scaled at 0.3 µM [33]: 464 mL/min/kg
Compound: Cc1c(Nc2ncc3cc(Cl)c(C4CCN([C@@H]5COC[C@@H]5O)CC4)cc3n2)cnn1[C@@H]1CC1(F)F
Activity [7]: Non-Toxic
Activity [8]: Non-Toxic
Activity [10]: Non-Toxic
fold induction at 96 h (GSTA5): 5
Activity (Salmonella typhimurium [17]): Non-Toxic
IC50 [20]: 6.2 µM
Activity [22]: Non-Toxic
Activity (Salmonella typhimurium [26]): Non-Toxic
fold induction at 96 h (CYP1A1): 3
Activity (Salmonella typhimurium [29]): Non-Toxic
fold induction at 96 h (UGT1A6): 2.5
